Experimental findings from article PMC5218480 (PLoS ONE, 2017) are described below.

This test deals with MV-4-11 cells. Briefly: Gene expression microarray analysis (Affymetrix PrimeView) and GSEA. It is filed as cell-based, human. More on the design: RFU PODN (11730768_x_at) / Fold change /veh PODN (11730768_x_at) / RFU LINC00158 (11744669_a_at) / Fold change /veh LINC00158 (11744669_a_at) / RFU DUSP10 (11751237_a_at) / Fold change /veh DUSP10 (11751237_a_at) / RFU ID3 (11757404_x_at) / Fold change /veh ID3 (11757404_x_at) / RFU PLEKHG5 (11737974_s_at) / Fold change /veh PLEKHG5 (11737974_s_at) / RFU LRRC4B (11730491_at) / Fold change /veh LRRC4B (11730491_at) / RFU GIMAP4 (11747438_a_at) / Fold change /veh GIMAP4 (11747438_a_at) / RFU KRT8 (11758183_x_at) / Fold change /veh KRT8 (11758183_x_at) / RFU CNN1 (11734310_a_at) / Fold change /veh CNN1 (11734310_a_at) / RFU VPS37D (11726825_at) / Fold change /veh VPS37D (11726825_at) / RFU C10orf10 (11716522_x_at) / Fold change /veh C10orf10 (11716522_x_at) / RFU KIR2DL2 /// KIR2DL4 /// KIR2DL5A /// KIR2DL5B /// KIR2DS1 /// KIR2DS2 /// KIR2DS3 /// KIR2DS4 /// KIR3DL3 /// KIR3DL3 /// KIR3DS1 (11738374_at) / Fold change /veh KIR2DL2 /// KIR2DL4 /// KIR2DL5A /// KIR2DL5B /// KIR2DS1 /// KIR2DS2 /// KIR2DS3 /// KIR2DS4 /// KIR3DL3 /// KIR3DL3 /// KIR3DS1 (11738374_at) / RFU C1QL1 (11718748_at) / Fold change /veh C1QL1 (11718748_at) / RFU TMPRSS4 (11747572_a_at) / Fold change /veh TMPRSS4 (11747572_a_at) / RFU HAMP (11756126_x_at) / Fold change /veh HAMP (11756126_x_at) / RFU RNFT2 (11725882_a_at) / Fold change /veh RNFT2 (11725882_a_at) / RFU NR4A2 (11747474_a_at) / Fold change /veh NR4A2 (11747474_a_at) / RFU ABCC12 (11746883_a_at) / Fold change /veh ABCC12 (11746883_a_at) / RFU TMEM136 (11760407_x_at) / Fold change /veh TMEM136 (11760407_x_at) / RFU CLDN22 /// WWC2 (11732394_at) / Fold change /veh CLDN22 /// WWC2 (11732394_at) / RFU HLA-DPB1 (11760878_x_at) / Fold change /veh HLA-DPB1 (11760878_x_at) / RFU SPINT1 (11716480_a_at) / Fold change /veh SPINT1 (11716480_a_at) / RFU GAP43 (11754022_s_at) / Fold change /veh GAP43 (11754022_s_at) / RFU A4GNT (11735810_at) / Fold change /veh A4GNT (11735810_at) / RFU PRB3 (11715151_x_at) / Fold change /veh PRB3 (11715151_x_at) / RFU TUBB4B (11761932_at) / Fold change /veh TUBB4B (11761932_at) / RFU CAPN14 (11732068_a_at) / Fold change /veh CAPN14 (11732068_a_at) / RFU TMCC2 (11721928_a_at) / Fold change /veh TMCC2 (11721928_a_at) / RFU IRGQ (11745062_a_at) / Fold change /veh IRGQ (11745062_a_at) / RFU FAM174B (11720279_a_at) / Fold change /veh FAM174B (11720279_a_at) / RFU TMPRSS4 (11748680_a_at) / Fold change /veh TMPRSS4 (11748680_a_at) / RFU FAM212B (11763350_a_at) / Fold change /veh FAM212B (11763350_a_at) / RFU PLEKHG5 (11743358_a_at) / Fold change /veh PLEKHG5 (11743358_a_at) / RFU ZSCAN30 (11745921_a_at) / Fold change /veh ZSCAN30 (11745921_a_at) / RFU CMKLR1 (11741424_a_at) / Fold change /veh CMKLR1 (11741424_a_at) / RFU LOC101060620 /// MAPK8IP1 (11723275_at) / Fold change /veh LOC101060620 /// MAPK8IP1 (11723275_at) / RFU SPTSSB (11747773_x_at) / Fold change /veh SPTSSB (11747773_x_at) / RFU PRSS12 (11739890_at) / Fold change /veh PRSS12 (11739890_at) / RFU BIN1 (11741810_x_at) / Fold change /veh BIN1 (11741810_x_at) / RFU WNT11 (11732464_a_at) / Fold change /veh WNT11 (11732464_a_at) / RFU C10orf10 (11716521_a_at) / Fold change /veh C10orf10 (11716521_a_at) / RFU C5orf56 (11738089_at) / Fold change /veh C5orf56 (11738089_at) / RFU CYB561 (11721691_x_at) / Fold change /veh CYB561 (11721691_x_at) / RFU ANKRD19P (11752326_a_at) / Fold change /veh ANKRD19P (11752326_a_at) / RFU OR2T12 /// OR2T33 /// OR2T8 (11738714_s_at) / Fold change /veh OR2T12 /// OR2T33 /// OR2T8 (11738714_s_at) / RFU VCAN (11748164_a_at) / Fold change /veh VCAN (11748164_a_at) / RFU JSRP1 (11732532_at) / Fold change /veh JSRP1 (11732532_at) / RFU KRTAP10-11 (11738290_x_at) / Fold change /veh KRTAP10-11 (11738290_x_at) / RFU MYO3A (11730013_a_at) / Fold change /veh MYO3A (11730013_a_at) / RFU EBF3 (11725865_a_at) / Fold change /veh EBF3 (11725865_a_at) / RFU CAMK2N1 (11719241_x_at) / Fold change /veh CAMK2N1 (11719241_x_at) / RFU C5orf56 (11738088_a_at) / Fold change /veh C5orf56 (11738088_a_at) / RFU OLFML3 (11715873_a_at) / Fold change /veh OLFML3 (11715873_a_at) / RFU LOC100653217 /// NTM (11731650_a_at) / Fold change /veh LOC100653217 /// NTM (11731650_a_at) / RFU MAPK11 (11762145_a_at) / Fold change /veh MAPK11 (11762145_a_at) / RFU FIZ1 (11724087_x_at) / Fold change /veh FIZ1 (11724087_x_at) / RFU OASL (11726364_x_at) / Fold change /veh OASL (11726364_x_at) / RFU SOX15 (11748057_x_at) / Fold change /veh SOX15 (11748057_x_at) / RFU CD79A (11719716_a_at) / Fold change /veh CD79A (11719716_a_at) / RFU HIST1H1D (11736915_at) / Fold change /veh HIST1H1D (11736915_at) / RFU CASKIN2 (11723855_a_at) / Fold change /veh CASKIN2 (11723855_a_at) / RFU LOC730098 (11760151_x_at) / Fold change /veh LOC730098 (11760151_x_at) / RFU OR4N2 (11742367_at) / Fold change /veh OR4N2 (11742367_at) / RFU PRRT2 (11749266_a_at) / Fold change /veh PRRT2 (11749266_a_at) / RFU SNX32 (11753110_a_at) / Fold change /veh SNX32 (11753110_a_at) / RFU CDHR5 (11726645_a_at) / Fold change /veh CDHR5 (11726645_a_at) / RFU RCAN1 (11760418_a_at) / Fold change /veh RCAN1 (11760418_a_at) / RFU FAM167A (11723789_a_at) / Fold change /veh FAM167A (11723789_a_at) / RFU FAM26E (11764081_at) / Fold change /veh FAM26E (11764081_at) / RFU ISYNA1 (11749810_s_at) / Fold change /veh ISYNA1 (11749810_s_at) / RFU ACY1 (11761880_at) / Fold change /veh ACY1 (11761880_at) / RFU 11764098_at / Fold change /veh 11764098_at / RFU SAMD14 (11745864_x_at) / Fold change /veh SAMD14 (11745864_x_at) / RFU NPB (11741838_a_at) / Fold change /veh NPB (11741838_a_at) / RFU TMPRSS6 (11731388_a_at) / Fold change /veh TMPRSS6 (11731388_a_at) / RFU KRTAP10-2 (11738614_at) / Fold change /veh KRTAP10-2 (11738614_at) / RFU ARHGAP8 /// PRR5-ARHGAP8 (11727945_x_at) / Fold change /veh ARHGAP8 /// PRR5-ARHGAP8 (11727945_x_at) / RFU KRTAP5-7 /// NADSYN1 (11734609_at) / Fold change /veh KRTAP5-7 /// NADSYN1 (11734609_at) / RFU RASL12 (11751679_a_at) / Fold change /veh RASL12 (11751679_a_at) / RFU CDKN2B (11736163_a_at) / Fold change /veh CDKN2B (11736163_a_at) / RFU PRF1 (11729649_at) / Fold change /veh PRF1 (11729649_at) / RFU, ZNF638 /// ZNF638-IT1 / Fold change vs veh, ZNF638 /// ZNF638-IT1 / RFU, PANK3 / Fold change vs veh, PANK3 / RFU, SH3YL1 / Fold change vs veh, SH3YL1 / RFU, ZEB2 / Fold change vs veh, ZEB2 / RFU, NRIP1 / Fold change vs veh, NRIP1 / RFU, PTTG1IP / Fold change vs veh, PTTG1IP / RFU, CAPN2 / Fold change vs veh, CAPN2 / RFU, MED14 / Fold change vs veh, MED14 / RFU, SNORA58 / Fold change vs veh, SNORA58 / RFU, C1orf63 / Fold change vs veh, C1orf63 / RFU, LRRFIP1 / Fold change vs veh, LRRFIP1 / RFU, NDUFAF7 / Fold change vs veh, NDUFAF7 / RFU, SLC12A2 / Fold change vs veh, SLC12A2 / RFU, IBTK / Fold change vs veh, IBTK / RFU, ESF1 / Fold change vs veh, ESF1 / Fold change vs veh, TMEM50B / RFU, TAOK1 / Fold change vs veh, TAOK1 / RFU, ACBD3 / Fold change vs veh, ACBD3 / RFU, TMA16 / Fold change vs veh, TMA16 / RFU, RWDD3 / Fold change vs veh, RWDD3 / RFU, BCAT1 / Fold change vs veh, BCAT1 / RFU, EDEM3 / Fold change vs veh, EDEM3 / RFU, TMEM33 / Fold change vs veh, TMEM33 / RFU, WDR75 / Fold change vs veh, WDR75 / RFU, AHCTF1 / Fold change vs veh, AHCTF1 / RFU, TFRC / Fold change vs veh, TFRC / RFU, ZDHHC17 / Fold change vs veh, ZDHHC17 / RFU, NOM1 / Fold change vs veh, NOM1 / RFU, ARL8B / Fold change vs veh, ARL8B / RFU, ZBTB11 / Fold change vs veh, ZBTB11 / RFU, TAMM41 / Fold change vs veh, TAMM41 / RFU, KIAA1704 /// LOC100996395 / Fold change vs veh, KIAA1704 /// LOC100996395 / RFU, ING1 / Fold change vs veh, ING1 / RFU, TRMT61B / Fold change vs veh, TRMT61B / RFU, FUBP3 / Fold change vs veh, FUBP3 / RFU, TP53 / Fold change vs veh, TP53 / RFU, TNKS2 / Fold change vs veh, TNKS2 / RFU, ZFP14 / Fold change vs veh, ZFP14 / RFU, ACTR2 / Fold change vs veh, ACTR2 / RFU, PPP3R1 / Fold change vs veh, PPP3R1 / RFU, PIK3R1 / Fold change vs veh, PIK3R1 / RFU, HNRNPA1 / Fold change vs veh, HNRNPA1 / RFU, RNF170 / Fold change vs veh, RNF170 / RFU, ZNF28 / Fold change vs veh, ZNF28 / RFU, RNGTT / Fold change vs veh, RNGTT / RFU, OGT / Fold change vs veh, OGT / RFU, BRD1 / Fold change vs veh, BRD1 / RFU, MARS / Fold change vs veh, MARS / RFU, ZNF655 / Fold change vs veh, ZNF655 / RFU, FAHD1 / Fold change vs veh, FAHD1 / RFU, BDP1 / Fold change vs veh, BDP1 / RFU, LRRCC1 / Fold change vs veh, LRRCC1 / RFU, ARID1A / Fold change vs veh, ARID1A / RFU, ZNF146 / Fold change vs veh, ZNF146 / RFU, ZNF330 / Fold change vs veh, ZNF330 / RFU, GPN3 / Fold change vs veh, GPN3 / RFU, C9orf123 / Fold change vs veh, C9orf123 / RFU, N4BP2L2 / Fold change vs veh, N4BP2L2 / RFU, ARFIP1 / Fold change vs veh, ARFIP1 / RFU, FAM179B / Fold change vs veh, FAM179B / RFU, BCL10 / Fold change vs veh, BCL10 / RFU, UHRF1BP1L / Fold change vs veh, UHRF1BP1L / RFU, BET1 / Fold change vs veh, BET1 / RFU, CNOT2 / Fold change vs veh, CNOT2 / RFU, ZNF268 / Fold change vs veh, ZNF268 / Fold change vs veh, ZNF507 / RFU, DGCR2 / Fold change vs veh, DGCR2 / RFU, WDSUB1 / Fold change vs veh, WDSUB1 / Fold change vs veh, HSP90B1 /// MIR3652 / RFU, ADSS / Fold change vs veh, ADSS / RFU, GK / Fold change vs veh, GK / RFU, ZNF148 / Fold change vs veh, ZNF148 / RFU, TAF9 / Fold change vs veh, TAF9 / RFU, SLC1A5 / Fold change vs veh, SLC1A5 / RFU, SLMO2 / Fold change vs veh, SLMO2 / RFU, ABCC4 / Fold change vs veh, ABCC4 / RFU, LOC101060439 /// RAP1B / Fold change vs veh, LOC101060439 /// RAP1B / RFU, RFX7 / Fold change vs veh, RFX7 / RFU, GTPBP10 / Fold change vs veh, GTPBP10 / RFU, CNEP1R1 / Fold change vs veh, CNEP1R1 / RFU, BIVM-ERCC5 /// ERCC5 / Fold change vs veh, BIVM-ERCC5 /// ERCC5 / RFU, ILF3 / Fold change vs veh, ILF3 / RFU 11762660_at / Fold change /veh 11762660_at / RFU VCAN (11757783_s_at) / Fold change /veh VCAN (11757783_s_at) / RFU DDX43 (11728927_at) / Fold change /veh DDX43 (11728927_at) / RFU KRT8 (11758188_x_at) / Fold change /veh KRT8 (11758188_x_at) / RFU NKD1 (11759106_at) / Fold change /veh NKD1 (11759106_at) / RFU SRD5A1 (11742802_a_at) / Fold change /veh SRD5A1 (11742802_a_at) / RFU TPSAB1 /// TPSB2 (11721975_s_at) / Fold change /veh TPSAB1 /// TPSB2 (11721975_s_at) / RFU GSTM3 (11746129_a_at) / Fold change /veh GSTM3 (11746129_a_at) / RFU IL23R (11737362_x_at) / Fold change /veh IL23R (11737362_x_at) / RFU TMEM51 (11727254_a_at) / Fold change /veh TMEM51 (11727254_a_at) / RFU PIWIL2 (11732686_x_at) / Fold change /veh PIWIL2 (11732686_x_at) / RFU ORM1 (11744905_x_at) / Fold change /veh ORM1 (11744905_x_at) / RFU CCDC152 (11743942_at) / Fold change /veh CCDC152 (11743942_at) / RFU ECM1 (11717891_a_at) / Fold change /veh ECM1 (11717891_a_at) / RFU IL23R (11748794_a_at) / Fold change /veh IL23R (11748794_a_at) / RFU TNFAIP8L3 (11732012_x_at) / Fold change /veh TNFAIP8L3 (11732012_x_at) / RFU MBOAT4 (11741988_at) / Fold change /veh MBOAT4 (11741988_at) / RFU 11764193_at / Fold change /veh 11764193_at / RFU TMEM53 (11763286_at) / Fold change /veh TMEM53 (11763286_at) / RFU MAGEB2 (11727129_at) / Fold change /veh MAGEB2 (11727129_at) / RFU TMEM200A (11744735_a_at) / Fold change /veh TMEM200A (11744735_a_at) / RFU CCDC152 (11751479_a_at) / Fold change /veh CCDC152 (11751479_a_at) / RFU FAM211A (11726209_a_at) / Fold change /veh FAM211A (11726209_a_at) / RFU RGS16 (11746705_a_at) / Fold change /veh RGS16 (11746705_a_at) / RFU VCAN (11755009_s_at) / Fold change /veh VCAN (11755009_s_at) / RFU RHOB (11743442_s_at) / Fold change /veh RHOB (11743442_s_at) / RFU RGS16 (11720943_a_at) / Fold change /veh RGS16 (11720943_a_at) / RFU RGS16 (11720944_at) / Fold change /veh RGS16 (11720944_at) / RFU, VPS4B / Fold change vs veh, VPS4B / RFU, CREB1 / Fold change vs veh, CREB1 / RFU, DNAJC13 / Fold change vs veh, DNAJC13 / RFU, GNAQ / Fold change vs veh, GNAQ / RFU, CDK5R1 / Fold change vs veh, CDK5R1 / RFU, ZRANB3 / Fold change vs veh, ZRANB3 / RFU, CUL4A / Fold change vs veh, CUL4A / RFU, CCNY / Fold change vs veh, CCNY / RFU, UFL1 / Fold change vs veh, UFL1 / RFU, COG3 / Fold change vs veh, COG3 / RFU, DIAPH2 / Fold change vs veh, DIAPH2 / RFU, SKA2 / Fold change vs veh, SKA2 / RFU, AFF3 / Fold change vs veh, AFF3 / RFU, LMF1 / Fold change vs veh, LMF1 / RFU, IPO11 / Fold change vs veh, IPO11 / RFU, DFFB / Fold change vs veh, DFFB / RFU, FOXP1 / Fold change vs veh, FOXP1 / RFU, CARD8 / Fold change vs veh, CARD8 / RFU, STRN3 / Fold change vs veh, STRN3 / RFU, ADK / Fold change vs veh, ADK / RFU, RASSF2 / Fold change vs veh, RASSF2 / RFU, WIPF1 / Fold change vs veh, WIPF1 / RFU, LARP1B / Fold change vs veh, LARP1B / RFU, RASA1 / Fold change vs veh, RASA1 / RFU, RB1 / Fold change vs veh, RB1 / RFU, PPFIA1 / Fold change vs veh, PPFIA1 / RFU, MAT2A / Fold change vs veh, MAT2A / RFU, CCT5 / Fold change vs veh, CCT5 / RFU, WDR92 / Fold change vs veh, WDR92 / RFU, CUX1 / Fold change vs veh, CUX1 / RFU, TTC7A / Fold change vs veh, TTC7A / RFU, TMEM135 / Fold change vs veh, TMEM135 / RFU, DEPTOR / Fold change vs veh, DEPTOR / RFU, CPM / Fold change vs veh, CPM / RFU, DNAJB6 / Fold change vs veh, DNAJB6 / RFU, CACNA2D3 / Fold change vs veh, CACNA2D3 / RFU, DTX4 / Fold change vs veh, DTX4 / RFU, TFCP2 / Fold change vs veh, TFCP2 / RFU, GMCL1 /// GMCL1P1 / Fold change vs veh, GMCL1 /// GMCL1P1 / RFU, AEBP2 / Fold change vs veh, AEBP2 / RFU, SNHG1 /// SNORD22 /// SNORD25 /// SNORD26 /// SNORD27 /// SNORD28 /// SNORD29 /// SNORD31 / Fold change vs veh, SNHG1 /// SNORD22 /// SNORD25 /// SNORD26 /// SNORD27 /// SNORD28 /// SNORD29 /// SNORD31 / Fold change (Aza/veh), C12orf56 (ProbeSet 11735607_a_at) / Fold change (ACY-1035/veh), C12orf56 (ProbeSet 11735607_a_at) / Fold change (Aza/veh), FGFR1OP (ProbeSet 11751329_s_at) / Fold change (ACY-1035/veh), FGFR1OP (ProbeSet 11751329_s_at) / Fold change (Aza/veh), VPS36 (ProbeSet 11739960_a_at) / Fold change (ACY-1035/veh), VPS36 (ProbeSet 11739960_a_at) / RFU SYPL1 (11715823_x_at) / Fold change /veh SYPL1 (11715823_x_at) / RFU IGFBP7 (11715501_s_at) / Fold change /veh IGFBP7 (11715501_s_at) / RFU REEP3 (11722064_at) / Fold change /veh REEP3 (11722064_at) / RFU IGLL1 (11728026_x_at) / Fold change /veh IGLL1 (11728026_x_at): dose or concentration left out as unconfirmed. As to conditions: ProbeSet 11743580_s_at; LIST B.

With `Nc1ncn([C@@H]2O[C@H](CO)[C@@H](O)[C@H]2O)c(=O)n1` [azacitidine], the “RFU, ACTR2” value is recorded as 932.68 RFU.
